Data reported in patent US20100190824A1, “Novel Substituted Piperidones as HSP Inducers” (priority 2007, published 2010).

Columns and labels:
[1] = system: TNF-α mRNA; assay: Inhibition of LPS-induced TNF-α expression in PMA differentiated THP-1 cells; assay type: cell-based, Human; conditions: LPS (1 ug/ml) and compound for 4 hours, LPS alone as 100%
Protocol: The purpose of the present study was to determine the inhibition of lipopolysaccharide(LPS)-induced TNF-α expression in phorbol merstyl ester (PMA) differentiated THP-1 cells.
Human monocytic leukaemia cell line (THP-1), differentiated into macrophage-like cells by PMA treatment was employed. Differentiated cells were treated with either LPS (1 ug/ml) alone or with LPS (1 ug/ml) and compound for 4 hours. Total RNA was isolated and expression of TNF-αmRNA along-with expression of 18S rRNA was monitored by real-time PCR. TNF-α mRNA expression was normalized relative to the expression of 18S rRNA Considering TNF-α expression for cells treated with LPS alone as 100%; the results for test compounds were expressed as % inhibition of TNF-α expression and are as shown in Table 4

[2] = system: HSP70b mRNA; assay: Cellular expression of HSP-70 mRNA in primary mixed neurons (real-time PCR); assay type: cell-based; conditions: fold induction of HSP70b mRNA relative to vehicle treated control; primary mixed neurons from neonatal rat cerebellum; 4 hours; normalized to 18S rRNA
Protocol: Experiments set forth in this section were conducted to determine whether the compounds of the present invention are able to elevate the expression of HSP-70 gene in cells.
Hela cell-line or primary mixed neurons derived from neonatal rat cerebellum were employed. Induction was carried out for the indicated dose(s) for 4 hours duration and total RNA was isolated. Expression of HSP70b mRNA along-with expression of 18S rRNA was monitored by real-time PCR. HSP70b mRNA expression was normalized relative to the expression of 18S rRNA.
The results for test compounds were expressed as fold induction of HSP-70 mRNA relative to vehicle treated control and are as shown in Table 2 & 3.

SMILES	TNF-alpha Inhibition [1]	HSP Induction in mixed neuron [2]
CC1(C)CN(Cc2ccccc2)CC(=Cc2ccccn2)C1=O [Compound 1, 1-Benzyl-3,3-dimethyl-5-[1-pyridin-2-yl-methylidene]-piperidin-4-one]	(++++) (>80%)	–
CC1(C)CN(C(=O)OCc2ccccc2)CC(=Cc2ccccn2)C1=O [Compound 2, 3,3-Dimethyl-4-oxo-5-[1-pyridin-2-yl-methylidene]-piperidine-1-carboxylic acid benzyl ester]	(+++) (61-80%)	–
CC1(C)CN(Cc2ccccc2)CC(=Cc2ccc(C(=O)N3CCOCC3)cc2)C1=O [Compound 7, 1-Benzyl-3,3-dimethyl-5-[1-[4-(morpholine-4-carbonyl)-phenyl]-methylidene]-piperidin-4-one]	(+++) (61-80%)	–
CSc1ccc(C=C2CN(Cc3ccccc3)CC(C)(C)C2=O)cc1 [Compound 8, 1-Benzyl-3,3-dimethyl-5-[1-(4-methylsulfanyl-phenyl)-methylidene]-piperidin-4-one]	(++++) (>80%)	–
CSc1ccc(C2/C(=C\c3cccc(N4CCOCC4)n3)C(=O)C(C)(C)CN2Cc2ccccc2)cc1 (centres unmarked) [Compound 42, 1-Benzyl-5,5-dimethyl-2-(4-methylsulfanyl-phenyl)-3-[1-(6-morpholin-4-yl-pyridin-2-yl)-meth-(E)-ylidene]-piperidin-4-one]	(++) (41-60%)	(+++) (9-16 fold)
CC1(C)CN(Cc2ccccc2)C(c2ccc(C(F)(F)F)cc2)C(=Cc2cccc(N3CCOCC3)n2)C1=O (centres unmarked) [Compound 43, 1-Benzyl-5,5-dimethyl-3-[1-(6-morpholin-4-yl-pyridin-2-yl)-methylidene]-2-(4-trifluoromethyl-phenyl)-piperidin-4-one]	(++) (41-60%)	(+++) (9-16 fold)
CC1(C)CN(Cc2ccccc2)C(c2ccc(Cl)c(Cl)c2)C(=Cc2ccccn2)C1=O (centres unmarked) [Compound 45, 1-Benzyl-2-(3,4-dichloro-phenyl)-5,5-dimethyl-3-[1-pyridin-2-yl-methylidene]-piperidin-4-one]	–	(++) (5-8 fold)
CSc1ccc(C2C(=Cc3ccccn3)C(=O)C(C)(C)CN2Cc2ccccc2)cc1 (centres unmarked) [Compound 46, 1-Benzyl-5,5-dimethyl-2-(4-methylsulfanyl-phenyl)-3-[1-pyridin-2-yl-methylidene]-piperidin-4-one]	(++) (41-60%)	(+++) (9-16 fold)
COc1ccc(CN2CC(C)(C)C(=O)C(=Cc3ccccn3)C2c2ccccc2)cc1 (centres unmarked) [Compound 47, 1-(4-Methoxy-benzyl)-5,5-dimethyl-2-phenyl-3-[1-pyridin-2-yl-methylidene]-piperidin-4-one]	(+++) (61-80%)	(++++) (>16 fold)
COC(=O)N1CC(=Cc2ccccn2)C(=O)C(C)(C)C1Cc1ccc(OC)cc1 (centres unmarked) [Compound 52, 2-(4-Methoxy-benzyl)-3,3-dimethyl-4-oxo-5-[1-pyridin-2-yl-methylidene]-piperidine-1-carboxylic acid methyl ester]	(++++) (>80%)	(++) (5-8 fold)
CC1(C)CN(Cc2cccs2)C(c2ccccc2F)C(=Cc2cccc(N3CCOCC3)n2)C1=O (centres unmarked) [Compound 57, 2-(2-Fluoro-phenyl)-5,5-dimethyl-3-[1-(6-morpholin-4-yl-pyridin-2-yl)-methylidene]-1-thiophen-2-ylmethyl-piperidin-4-one]	–	(+) (2-4 fold)
CC1(C)CN(Cc2cccs2)C(c2ccccc2F)C(=Cc2ccccn2)C1=O (centres unmarked) [Compound 58, (2-Fluoro-phenyl)-5,5-dimethyl-3-[1-pyridin-2-yl-methylidene]-1-thiophen-2-ylmethyl-piperidin-4-one]	–	(+) (2-4 fold)
COc1ccc(CC2N(C(=S)Nc3ccccc3)CC(=Cc3ccccn3)C(=O)C2(C)C)cc1 (centres unmarked) [Compound 60, 2-(4-Methoxy-benzyl)-3,3-dimethyl-4-oxo-5-[1-pyridin-2-yl-methylidene]-piperidine-1-carbothioic acid phenylamide]	(+++) (61-80%)	(++++) (>16 fold)
CSc1ccc(C2C(=Cc3ccccn3)C(=O)C(C)(C)CN2Cc2cccs2)cc1 (centres unmarked) [Compound 61, 5,5-Dimethyl-2-(4-methylsulfanyl-phenyl)-3-[1-pyridin-2-yl-methylidene]-1-thiophen-2-ylmethyl-piperidin-4-one]	(+++) (61-80%)	(++++) (>16 fold)
COc1ccc(CN2CC(C)(C)C(=O)C(=Cc3cccc(N4CCOCC4)n3)C2c2ccccc2)cc1 (centres unmarked) [Compound 62, 1-(4-Methoxy-benzyl)-5,5-dimethyl-3-[1-(6-morpholin-4-yl-pyridin-2-yl)-methylidene]-2-phenyl-piperidin-4-one]	–	(+) (2-4 fold)
COc1ccc(CN2CC(C)(C)C(=O)C(=Cc3cccc(N4CCOCC4)n3)C2c2ccc(C(F)(F)F)cc2)cc1 (centres unmarked) [Compound 63, 1-(4-Methoxy-benzyl)-5,5-dimethyl-3-[1-(6-morpholin-4-yl-pyridin-2-yl)-methylidene]-2-(4-trifluoromethyl-phenyl)-piperidin-4-one]	(++) (41-60%)	(++) (5-8 fold)
Cc1cc(N2CC(=Cc3ccccn3)C(=O)C(C)(C)C2)no1 [Compound 64, 3,3-Dimethyl-1-(5-methyl-isoxazol-3-yl)-5-[1-pyridin-2-yl-methylidene]-piperidin-4-one]	–	(++++) (>16 fold)
Cc1cc(N2CC(C)(C)C(=O)C(=Cc3cccc(N4CCOCC4)n3)C2c2ccccc2)no1 (centres unmarked) [Compound 65, 5,5-Dimethyl-1-(5-methyl-isoxazol-3-yl)-3-[1-(6-morpholin-4-yl-pyridin-2-yl)-methylidene]-2-phenyl-piperidin-4-one]	(+++) (61-80%)	(+++) (9-16 fold)
COc1ccc(CC2N(C(=O)NCc3ccccc3)CC(=Cc3ccccn3)C(=O)C2(C)C)cc1 (centres unmarked) [Compound 66, 2-(4-Methoxy-benzyl)-3,3-dimethyl-4-oxo-5-[1-pyridin-2-yl-methylidene]-piperidine-1-carboxylic acid benzylamide]	–	(++) (5-8 fold)
CC1(C)CN(CCc2cccs2)CC(=Cc2cccc(N3CCOCC3)n2)C1=O [Compound 69, 3,3-Dimethyl-5-[1-(6-morpholin-4-yl-pyridin-2-yl)-methylidene]-1-(2-thiophen-2-yl-ethyl)-piperidin-4-one]	(+++) (61-80%)	(++++) (>16 fold)
CC1(C)CN(Cc2ccc(F)cc2)CC(=Cc2cccc(N3CCOCC3)n2)C1=O [Compound 73, 1-(4-Fluoro-benzyl)-3,3-dimethyl-5-[1-(6-morpholin-4-yl-pyridin-2-yl)-methylidene]-piperidin-4-one]	–	(+) (2-4 fold)
CC1(C)CN(Cc2ccc(F)cc2)C(c2ccccc2)C(=Cc2ccccn2)C1=O (centres unmarked) [Compound 76, 1-(4-Fluoro-benzyl)-5,5-dimethyl-2-phenyl-3-[1-pyridin-2-yl-methylidene]-piperidin-4-one]	–	(+) (2-4 fold)
CC1(C)CN(Cc2ccc(F)cc2)C(c2ccccc2)C(=Cc2cccc(N3CCOCC3)n2)C1=O (centres unmarked) [Compound 81, 1-(4-Fluoro-benzyl)-5,5-dimethyl-3-[1-(6-morpholin-4-yl-pyridin-2-yl)-methylidene]-2-phenyl-piperidin-4-one]	–	(+) (2-4 fold)
COc1ccc(CN2CC(C)(C)C(=O)C(=Cc3cccc(N4CCOCC4)n3)C2c2ccccc2F)cc1 (centres unmarked) [Compound 86, 2-(2-Fluoro-phenyl)-1-(4-methoxy-benzyl)-5,5-dimethyl-3-[1-(6-morpholin-4-yl-pyridin-2-yl)-methylidene]-piperidin-4-one]	–	(+) (2-4 fold)
COc1ccc(C2C(=Cc3cccc(N4CCOCC4)n3)C(=O)C(C)(C)CN2Cc2ccccc2)c(F)c1 (centres unmarked) [Compound 92, 1-Benzyl-2-(2-fluoro-4-methoxy-phenyl)-5,5-dimethyl-3-[1-(6-morpholin-4-yl-pyridin-2-yl)-methylidene]-piperidin-4-one]	–	(++) (5-8 fold)
CC1(C)CN(CCc2ccccc2)C(c2ccccc2)C(=Cc2ccccn2)C1=O (centres unmarked) [Compound 94, 5,5-Dimethyl-1-phenethyl-2-phenyl-3-[1-pyridin-2-yl-methylidene]-piperidin-4-one]	–	(+) (2-4 fold)
CC1(C)CN(CCc2ccccc2)C(c2ccccc2)C(=Cc2cccc(N3CCOCC3)n2)C1=O (centres unmarked) [Compound 95, 5,5-Dimethyl-3-[1-(6-morpholin-4-yl-pyridin-2-yl)-methylidene]-1-phenethyl-2-phenyl-piperidin-4-one]	–	(++) (5-8 fold)
Cc1ccc(CN2CC(C)(C)C(=O)C(=Cc3cccc(N4CCOCC4)n3)C2c2ccccc2)cc1 (centres unmarked) [Compound 232, 5,5-Dimethyl-1-(4-methyl-benzyl)-3-[1-(6-morpholin-4-yl-pyridin-2-yl)-methylidene]-2-phenyl-piperidin-4-one]	–	(++) (5-8 fold)
